Experimental data: US6881756B2, “Method for treating skin disorders” (Johnson & Johnson Consumer Companies, Inc., priority 2001, dated 2005)

Tests used:
Albino male CD-1 mice [1] = assay: Neurosensory (neurogenic) inflammation model: resiniferatoxin-induced ear edema; format: in vivo, mouse; details: for activity in the neurosensory inflammation model (in words): resiniferatoxin ear edema model, overall; for % Inhibition of the Ear Edema: 20 μl to left ear, biopsy weight at 30 minutes
From the text: Neurosensory inflammation, also referred to as neurogenic inflammation, is a type of inflammation triggered by sensory nerve activation in skin. Certain natural substances that act on vanilloid receptors cause the nerves (C-fibers) to release inflammatory neuropeptides such as substance P and calcitonin gene-related peptide. In mouse skin, an edema response rapidly occurs upon application of either the vanilloid receptor activators, capsaicin or resiniferatoxin. Compounds that inhibit the response to neurosensory stimulation could be useful as topical analgesics, itch inhibitors or soothing agents for irritated or damaged skin. See U.S. Pat. No. 6,090,811.
Albino male CD-1 mice, 7-9 weeks old, were used. Resiniferatoxin alone (0.05%) or a combination of 0.05% resiniferatoxin with test compound was made in acetone. A 20-μl volume of the solutions was applied to the left ears (10 mice per treatment group). The right ear was not treated. The mice were sacrificed by CO2 inhalation 30 minutes after applying the solutions. The left and right ears were removed and a 7-mm biopsy was removed from each ear and weighed. The difference in biopsy weights between the right and left ear was calculated. The percent inhibition was calculated by comparing treatments to resiniferatoxin alone. Anti-edema effects of compounds are evident as an inhibition of the increase in ear weight.

Albino male CD-1 mice [2] = assay: Allergic contact dermatitis model: oxazolone-induced ear swelling; format: in vivo, mouse; details: for % Inhibition of the Ear Swelling Response: 20 μL to left ear 1 hour after oxazolone challenge, ear biopsy weight at 24 hours
Method: Allergic contact dermatitis is an animal model of skin inflammation that mimics many aspects of human skin inflammation. See Young J M, De Young L M, Cutaneous Models of Inflammation for the Evaluation of Topical and Systemic Pharmacological Agents; In: Pharmacological Methods in the Control of Inflammation, Alan R. Liss, Inc, pp. 215-231 (1989). […] The inflammatory response is established by using oxazolone as the chemical sensitizer. A topical anti-inflammatory agent is assessed by measuring its ability to suppress the ear swelling reaction after applying a challenge dose of oxazolone to the ear followed by the test agent.
In this assay, the totarol (Mende-DEK Limited, Masterton, New Zealand) was evaluated against hydrocortisone, a steroid known to inhibit allergic contact dermatitis. Albino male CD-1 mice, 7-9 weeks old, were induced on the shaved abdomen with 50 μL of 3% oxazolone in acetone/corn oil (Day 0). On Day 5, a 20 μL volume of 2% oxazolone in acetone was applied to the dorsal left ear of the mouse. Test agents were applied to the left ear (20 μL) 1 hour after oxazolone challenge in a 70% ethanol/30% propylene glycol vehicle. The right ear was not treated. The mice were sacrificed by CO2 inhalation 24 hours after the oxazolone challenge, the left and right ears were removed and a 7-mm biopsy was taken from each ear and weighed. Anti-inflammatory effects of compounds are evident as an inhibition of the increase in ear weight.

Structure (SMILES)	activity in the neurosensory inflammation model (in words) (Albino male CD-1 mice [1])	% Inhibition of the Ear Edema (Albino male CD-1 mice [1]; topical dose 0.5% w/v with 0.05% resiniferatoxin in acetone) [%]	% Inhibition of the Ear Swelling Response (Albino male CD-1 mice [2]; topical dose 0.001% w/v) [%]	% Inhibition of the Ear Swelling Response (Albino male CD-1 mice [2]; topical dose 0.01% w/v) [%]	% Inhibition of the Ear Swelling Response (Albino male CD-1 mice [2]; topical dose 0.1% w/v) [%]	% Inhibition of the Ear Edema (Albino male CD-1 mice [1]; topical dose 1% w/v with 0.05% resiniferatoxin in acetone) [%]	topical anti-inflammatory activity (in words) (Albino male CD-1 mice [2]; oxazolone allergic contact dermatitis model, overall)	% Inhibition of the Ear Swelling Response (Albino male CD-1 mice [2]; topical dose 0.03% w/v) [%]	% Inhibition of the Ear Swelling Response (Albino male CD-1 mice [2]; topical dose 0.3% w/v) [%]	% Inhibition of the Ear Swelling Response (Albino male CD-1 mice [2]; topical dose 1% w/v) [%]	activity compared with hydrocortisone (in words) (Albino male CD-1 mice [2]; totarol at its two highest doses vs highest dose of hydrocortisone)
CCCCC/C=C\C/C=C\C/C=C\C/C=C\CCCC(=O)NCc1ccc(O)c(OC)c1 [Arvanil, reference compound]	also active	26.8									
C[C@]12CCC(=O)C=C1CC[C@@H]1[C@@H]2[C@@H](O)C[C@@]2(C)[C@H]1CC[C@]2(O)C(=O)CO [Hydrocortisone, reference compound]			36.0	65.5	84.2						
CC(C)c1c(O)ccc2c1CC[C@H]1C(C)(C)CCC[C@]21C [Totarol]	highly effective					46.6	highly effective as a topical anti-inflammatory agent with dose-dependent inhibition of the inflammatory response	44.6	80.0	82.3	equivalent in activity to the highest dose of hydrocortisone
